The values below come from paper PMC6063323, “Synthesis, radiosynthesis, in vitro and first in vivo evaluation of a new matrix metalloproteinase inhibitor based on γ-fluorinated α-sulfonylaminohydroxamic acid” (EJNMMI Radiopharmacy and Chemistry, 2018).

Series [1] can be described thus: small animal PET in vivo biodistribution after intravenous injection. Further details: species or system C57/BL6 mice. How it is done: Adult C57/BL6 mice (male, 21–23 g) were anesthetized by isoflurane/O2, and one lateral tail vein was cannulated using a 27 Ga needle connected to 15 cm polyethylene catheter tubing. (S)-[^18F]9a (500 kBq/g bodyweight) was injected as a bolus (50 μL of compound flushed with 100 μL of saline) via the tail vein, and subsequent PET scanning was performed.
PET experiments were carried out using a sub-millimeter high resolution (0.7 mm full width at half maximum) small animal scanner (32 module quadHIDAC, Oxford Positron Systems Ltd., Oxford, UK) with uniform spatial resolution (< 1 mm) over a large cylindrical field (165 mm diameter, 280 mm axial length) (Schäfers et al. [2005]).
List-mode data were acquired for 120 min and reconstructed into dynamic time frames using an iterative reconstruction algorithm. Subsequently, the scanning bed was transferred to the computed tomography (CT) scanner (Inveon, Siemens Medical Solutions, U.S.) and a CT acquisition with a spatial resolution of 80 μm was performed for each mouse. Reconstructed image data sets were co-registered based on extrinsic markers attached to the multimodal scanning bed and the image analysis software (Inveon Research Workplace 3.0, Siemens Medical Solutions, USA). Three-dimensional volumes of interest (VOIs) were defined over the respective organs in CT data sets, transferred to the co-registered PET data and analyzed quantitatively. Regional uptake was calculated as percentage of injected dose by dividing counts per milliliter in the VOI by total counts in the mouse multiplied by 100 (%ID/mL). Routes of tracer elimination were assessed by VOI segmentation of kidneys and bladder (renal route), and liver, gall bladder, small and large intestine (hepatobiliary route). Total activity for each route was calculated as percentage of injected dose by dividing the total counts in the respective VOI by total counts in the mouse multiplied by 100 (%ID).
Maximum intensity projections (MIPs) of the whole body in vivo biodistribution of tracer-associated radioactivity in an adult C57/Bl6 mouse 0–2, 2–5, 5–10, 20–30 and 80–90 min after intravenous injection of (S)-[^18F]9a are shown in Fig. 3.

Series [2] in a line: in vivo biostability and metabolism study (radio-HPLC of plasma, urine and tissue homogenates). The arrangement: species or system OCR (CD1) wild type mice. Particulars: 30 min p.i., mouse. How it is done: Approximately 11.1 MBq (S)-[^18F]9a (in a maximum volume of 200 μL) was injected into three mice each via tail vein injection. The animals were sacrificed at 30 min p.i.. Whole blood was obtained, weighed, and centrifuged at 3000 rpm (3 min) to isolate plasma. Urine was also collected. The muscle, brain, kidneys, and liver were harvested and homogenized in lysis buffer (1% SDS in PBS buffer). An aliquot of each sample (400 μL) was subsequently removed, mixed with 400 μL of acetonitrile and 100 μL of 3% acetic acid in acetonitrile, vigorously mixed, and placed on dry ice for 3 min. After thawing, the samples were centrifuged at 13000 rpm (8 min) to allow for the separation of supernatant from the pellet. The supernatant was then removed and assayed for radioactivity in a PerkinElmer Wizard γ-counter (20 s). The samples were analyzed by HPLC, using a γ-detector (Raytest GmbH/Agilent). HPLC was done on a Phenomenex C18 column (250 mm × 4.6 mm) using a gradient method with acetonitrile and water (both having 0.05% TFA).
An in vivo biostability and metabolism study was performed in three 10-month old female OCR (CD1) wild type mice 30 min p.i.

A short description of series [3]: water/octanol partition coefficient logD (exp.). It is filed as physicochemical. Particulars: for logD: 1-octanol/PBS pH 7.4, determined for (S)-[^18F]9a. How it is done:
The lipophilicity of the radioligand (S)-[^18F]9a was assessed by determination of the water/octanol partition coefficients following a published procedure (Prante et al. [2006]). In brief, approximately 20 kBq of (S)-[^18F]9a were mixed with equal amounts (0.5 mL) of PBS (pH 7.4) and 1-octanol and the resulting biphasic system was mixed vigorously for 1 min at rt. The tubes were centrifuged (3000 rpm, 2 min) and 400 μL of the octanol phase were separated and again mixed with equal amounts (400 μL) of PBS. The resulting biphasic system was again mixed vigorously of 1 min at rt. After centrifugation (3000 rpm, 2 min) three samples of 100 μL of each layer were counted in a gamma counter (Wallac Wizard, Perkin-Elmer Life Science). The partition coefficient was determined by calculating the ratio cpm(octanol)/cpm(PBS) and expressed as logD (exp.) (log(cpmoctanol/cpmPBS)). Two independent experiments were performed in triplicate and data were provided as mean values ± standard deviation.
Radiosynthesis of the ^18F-labelled counterpart (S)-[^18F]9a was accomplished via direct nucleophilic substitution reaction of the tosylate precursor (S)-9b by [^18F]fluoride according to the synthesis described for [^18F]FEtO-CGS 25966 (Wagner et al. [2011]). The radiosynthesis provided (S)-[^18F]9a with radiochemical yields of 31–46% (n = 3), radiochemical purities of > 97% in 95–110 min from the end of radionuclide production and molar activities of 2.8–3.4 GBq/μmol after radiosynthesis. The experimental logD value of the radioligand was determined in phosphate-buffered saline (PBS) as already described (Prante et al. [2006]).

A further series concerns MMP-9. Particulars: cited from earlier work.
In another series the test system is MMP-2. Particulars: cited from earlier work.
The target of a further series is activated MMP-9 (Homo sapiens, UniProt P14780). Description: fluorometric in vitro MMP-9 inhibition assay. It is filed as biochemical. Particulars: SD from three independent experiments; enzyme 2 nM, 37 °C, 30 min preincubation. How it is done: (§1) The inhibition potencies of (R)-9a and (S)-9a against activated MMP-2 and -9 were assayed using the synthetic fluorometric substrate (7-methoxycoumarin-4-yl)acetyl-Pro-Leu-Gly-Leu-(3-(2,4-dinitrophenyl)-L-2,3-diaminopropionyl)Ala-Arg-NH2 (R&D Systems) as described previously (Huang et al. [1997]). Briefly, MMP-2 and -9 (each at 2 nM) and test compounds at varying concentrations (10 pM to 1 mM) in Tris (50 mM), pH 7.5, containing NaCl (0.2 M), CaCl2 (5 mM), ZnSO4 (20 μM), and 0.05% Brij 35 were preincubated at 37 °C for 30 min. An aliquot of substrate (10 μL of a 50 μM solution) was added to the enzyme inhibitor mixture (90 μL), and the fluorescence changes were monitored using a TriStar2 Multimode Reader LB 942, (Berthold) with excitation and emission wavelengths of 340 and 405 nm, respectively. Reaction rates were measured from the initial 10 min and plotted as a function of inhibitor concentration. From the resulting inhibition curves, the IC50 values were calculated by nonlinear regression analysis using the Grace 5.1.8 software (Linux).
activated MMP-9, sequence (P14780 107-707 limits assumed): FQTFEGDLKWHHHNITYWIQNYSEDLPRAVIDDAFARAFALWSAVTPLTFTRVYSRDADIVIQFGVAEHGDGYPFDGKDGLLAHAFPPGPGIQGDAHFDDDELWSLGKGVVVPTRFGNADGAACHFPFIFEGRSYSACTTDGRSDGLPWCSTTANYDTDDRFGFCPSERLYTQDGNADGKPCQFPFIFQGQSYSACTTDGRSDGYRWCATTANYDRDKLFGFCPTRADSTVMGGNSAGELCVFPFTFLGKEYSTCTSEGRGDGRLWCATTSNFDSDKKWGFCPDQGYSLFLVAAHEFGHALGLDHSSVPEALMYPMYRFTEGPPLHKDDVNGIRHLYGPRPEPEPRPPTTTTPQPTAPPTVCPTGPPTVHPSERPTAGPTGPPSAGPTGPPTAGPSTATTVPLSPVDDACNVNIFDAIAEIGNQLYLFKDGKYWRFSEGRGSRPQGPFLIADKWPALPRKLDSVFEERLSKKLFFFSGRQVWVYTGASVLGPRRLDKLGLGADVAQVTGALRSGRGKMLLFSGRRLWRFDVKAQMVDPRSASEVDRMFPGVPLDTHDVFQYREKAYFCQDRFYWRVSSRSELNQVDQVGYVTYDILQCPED
(§2) The MMP inhibition potencies of the hydroxamic acids (R)-9a and (S)-9a (Fig. 2) against MMP-2 and -9 were measured by fluorometric in vitro inhibition assays, following the previously described procedure (Huang et al. [1997]).

Another series concerns the target T1, activated MMP-2 (Homo sapiens, UniProt P08253).
T1 sequence (P08253 110-660): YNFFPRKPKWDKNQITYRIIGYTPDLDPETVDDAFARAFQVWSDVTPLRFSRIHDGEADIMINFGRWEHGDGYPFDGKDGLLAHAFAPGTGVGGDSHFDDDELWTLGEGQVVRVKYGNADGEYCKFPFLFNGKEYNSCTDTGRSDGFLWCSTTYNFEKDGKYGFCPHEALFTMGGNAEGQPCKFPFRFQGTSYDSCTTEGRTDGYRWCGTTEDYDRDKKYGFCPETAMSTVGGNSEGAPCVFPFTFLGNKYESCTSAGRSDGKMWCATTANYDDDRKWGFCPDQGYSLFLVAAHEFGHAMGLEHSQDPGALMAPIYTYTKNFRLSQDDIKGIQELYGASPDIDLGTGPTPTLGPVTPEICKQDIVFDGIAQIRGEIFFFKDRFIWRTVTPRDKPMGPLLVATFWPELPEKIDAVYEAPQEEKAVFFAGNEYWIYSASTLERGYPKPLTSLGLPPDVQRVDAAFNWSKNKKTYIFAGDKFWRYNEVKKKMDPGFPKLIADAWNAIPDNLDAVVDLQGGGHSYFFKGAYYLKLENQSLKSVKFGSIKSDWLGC
Description: fluorometric in vitro MMP-2 inhibition assay. Particulars: SD from three independent experiments; enzyme 2 nM, 37 °C, 30 min preincubation. Type of series: biochemical. The method, then:
as §1, §2

Details of series [4]: method as in Wagner et al., [2011]. Particulars: ref Wagner et al., [2011], cited from earlier work.
[5] abbreviates: Table 1, ref Mac Pherson et al. [1997], Scozzafava et al. 2000, Behrends et al. [2015], read-out: IC50 values MMP-9.
Where [6] appears, read: Table 1, ref Mac Pherson et al. [1997], Scozzafava et al. 2000, Behrends et al. [2015], read-out: IC50 values MMP-2.
[7] abbreviates: ref Behrends et al., [2015], read-out: IC50 MMP-9.
The mark [8] stands for this setting: ref Behrends et al., [2015], read-out: IC50 MMP-2.

Structures are written as SMILES. Read-outs that look alike come from different tables or passages of the source.

For orientation: logD means lipophilicity at a set pH, counting ionised and neutral species. The low end stands for lower lipophilicity, the high end for higher lipophilicity. Regarding `C=C(F)C[C@@H](C(=O)NO)N(Cc1ccccc1)S(=O)(=O)c1ccc(OCC[18F])cc1` [(S)-[^18F]9a, (S)-2-[N-Benzyl-4-(2-[^18F]fluoroethoxy)phenylsulfonamido]-4-fluoro-N-hydroxypent-4-enamide], the “tracer remaining in non-excretion organs” value in series [1] (80–90 min p.i., mouse, i.v.) was “no significant tracer remaining”. Also, the “injected tracer activity cleared from the blood and tissues” value in series [1] (90 min post injection) came out at 73%. Also, in series [1] (entire dynamic imaging study, mouse), the “defluorination in vivo (bone uptake of [^18F]fluoride ions)” value is listed as “not observed”. In series [1] (mouse, i.v., PET), the “accumulation in brain, myocardium, lung and muscles (unspecific binding)” value is given as “not observed”; the “clearance of tracer and metabolites by renal excretion” value is reported as 8%; the “clearance of tracer and metabolites through the liver and the gallbladder” value came out at 92%. In series [2], the “extent of metabolism in plasma (into four metabolites)” value was “about 92%”; the “extent of metabolism in plasma, kidneys, urine, muscle and brain” value is given as “about 90%”. For the same compound, in series [2] (radio-HPLC), the “share of radioactivity in brain” value came to 12 % HPLC, the “share of radioactivity in kidney” value was found to be 17 % HPLC, the “share of radioactivity in liver” value was determined as 1 % HPLC and the “share of radioactivity in muscle” value stood at 17 % HPLC. In addition, in series [2] (radio-HPLC), the “share of radioactivity in plasma” value came to 8 % HPLC. In series [2] (to four polar metabolites), the “metabolism of the parent compound in urine” value is “complete metabolism”. In series [3], the logD is 1.16. Moreover, the “hydrophilicity in comparison to [^18F]FEtO-CGS25966” value in series [3] (from experimental logD values) was determined as 7 times.
The IC50 is the point on the concentration scale where inhibition reaches its midpoint. As to `COc1ccc(S(=O)(=O)N(Cc2cccnc2)[C@@H](CCF)C(=O)NO)cc1` [(S)-1], the IC50 is 3 nM in the series on MMP-9 (setting [5]) and 32.8 nM with MMP-2 (setting [6]).
As to `C=C(F)C[C@H](C(=O)NO)N(Cc1ccccc1)S(=O)(=O)c1ccc(OCCF)cc1` [(R)-9a], the IC50 was found to be 0.5 ± 0.3 nM against activated MMP-9 and 10.4 ± 5.9 nM against activated MMP-2.
Regarding `C=C(F)C[C@H](C(=O)NO)N(Cc1cccnc1)S(=O)(=O)c1ccc(OC)cc1` [(R)-2], the IC50 is 8.3 nM with MMP-9 (setting [5]), 8.3 ± 0.1 nM in the series with MMP-9 (setting [7]), 9.3 nM with MMP-2 (setting [6]) and 9.3 ± 2 nM with MMP-2 (setting [8]).
Consider `COc1ccc(S(=O)(=O)N(Cc2cccnc2)[C@@H](C(=O)NO)C(C)C)cc1` [(R)-CGS 27023A], for which the IC50 with MMP-9 (setting [5]) is 8 nM; in the series with MMP-2 (setting [6]), 20 nM.
Consider `CC(C)[C@H](C(=O)NO)N(Cc1ccccc1)S(=O)(=O)c1ccc(OCCF)cc1` [(R)-FEtO- CGS 25966], for which the IC50 with MMP-9 (ref Wagner et al., [2011], read-out: IC50 MMP-9) was 50 ± 27 nM; in the series on MMP-2 (ref Wagner et al., [2011], read-out: IC50 MMP-2) it was 4 ± 3 nM. Also, the figures for the “logD (exp.)” value in series [4] and in series [4] (listed as the analog derived from CGS 25966) were 2.02 ± 0.03 and 2.0, respectively.
For `C=C(F)C[C@@H](C(=O)NO)N(Cc1ccccc1)S(=O)(=O)c1ccc(OCCF)cc1` [(S)-9a, (S)-2-[N-Benzyl-4-(2-fluoroethoxy)phenylsulfonamido]-4-fluoro-N-hydroxypent-4-enamide], the IC50 at activated MMP-9 turned out to be 0.1 ± 0.01 nM; on activated MMP-2 it was 0.3 ± 0.03 nM. The compound further had a logD in series [3] of 1.16 ± 0.2.
As to `C=C(F)C[C@@H](C(=O)NO)N(Cc1cccnc1)S(=O)(=O)c1ccc(OC)cc1` [(S)-2], the IC50 with MMP-9 (setting [5]) was 4.9 nM; in the series on MMP-9 (setting [7]), 4.9 ± 0.4 nM; with MMP-2 (setting [6]) it was 7.2 nM; with MMP-2 (setting [8]), 7.2 ± 0.1 nM.
In the case of `COc1ccc(S(=O)(=O)N(Cc2cccnc2)[C@H](CCF)C(=O)NO)cc1` [(R)-1], the IC50 in the series with MMP-9 (setting [5]) is 12.3 nM; in the series with MMP-2 (setting [6]), 6.4 nM.
